Calls of active or inactive are those of the source. The rule behind the calls is not given here.
Assays:
[1] = Peroxynitrite scavenging activity assessed as inhibition of DHR 123 oxidation; type: functional
BV-2 [2] = assay: Inhibition of LPS-induced NO production in mouse BV2 cells; type: functional, cell-based
BV-2 [3] = assay: Decrease in iNOS protein expression in LPS-activated mouse BV2 cells at 20 uM; type: functional, cell-based

Row | SMILES | SC50 [1] | IC50 (BV-2 [2]) | Activity (BV-2 [3])
1 | CC(C)(S)[C@@H](N)C(=O)O | 5.13 µM |  | 
2 | O=c1c(O)c(-c2ccc(O)c(O)c2)oc2cc(O)cc(O)c12 [QUERCETIN] |  | 29.6 µM | 
3 | COc1c(-c2ccc(O)c(O)c2)oc2cc(O)cc(O)c2c1=O [3-O-METHYLQUERCETIN] | 0.77 µM | 3.8 µM | Active
4 | CNC(=N)NCCC[C@H](N)C(=O)O [TILARGININE] |  | 13.2 µM | 

From ChEMBL document CHEMBL1141463, “In vitro anti-inflammatory activity of 3-O-methyl-flavones isolated from Siegesbeckia glabrescens” (Bioorg Med Chem Lett, 2008)
